Test results reported in PMC6376136, “Impact of lipid binding on the tertiary structure and allergenic potential of Jug r 3, the non-specific lipid transfer protein from walnut” (Scientific Reports, 2019).

Target: T1, Jug r 3 (Juglans regia, UniProt C5H617)
T1 construct: mature protein, secreted from Pichia pastoris GS115 (pPICZalphaA), signal peptide removed; four extra N-terminal residues EAEF; monomer
T1 sequence (C5H617 27-119): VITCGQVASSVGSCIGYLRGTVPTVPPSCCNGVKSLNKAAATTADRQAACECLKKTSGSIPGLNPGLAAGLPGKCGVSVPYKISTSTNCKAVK
Assay: ANS fluorescence displacement
Assay type: binding
Conditions: 10 uM protein, 10 uM ANS, protein:ligand 1:10 (100 uM ligand), overnight at 4 °C

With `CCCCCCCC/C=C\CCCCCCCC(=O)O` [OLE, oleate] the “% reduction of ANS fluorescence at protein:ligand 1:10” value was 31%.
